Measurements taken from the NIST ThermoML archive (doi:10.1021/je7003929).

Conditions: Liquid, Vibrating tube method

CCCCCC [hexane]
Conditions | mass density [kg/m3]
313.12 K, 1019 kPa | 642.2
313.12 K, 2044 kPa | 643.5
313.12 K, 3023 kPa | 644.6
313.12 K, 4018 kPa | 645.8
313.12 K, 5016 kPa | 647
313.12 K, 6012 kPa | 648.1
313.12 K, 7016 kPa | 649.2
313.12 K, 8016 kPa | 650.3
313.12 K, 9020 kPa | 651.4
313.12 K, 10018 kPa | 652.5
313.12 K, 11020 kPa | 653.5
313.12 K, 12004 kPa | 654.6
313.12 K, 13007 kPa | 655.6
313.12 K, 14015 kPa | 656.6
313.12 K, 15006 kPa | 657.6
313.12 K, 16023 kPa | 658.6
313.12 K, 17015 kPa | 659.6
313.12 K, 18011 kPa | 660.5
313.12 K, 19009 kPa | 661.4
313.12 K, 20016 kPa | 662.4
313.12 K, 20995 kPa | 663.3
313.12 K, 22018 kPa | 664.2
313.12 K, 23018 kPa | 665.1
313.12 K, 24013 kPa | 666
313.12 K, 25002 kPa | 666.8
323.05 K, 1030 kPa | 633
323.05 K, 2010 kPa | 634.3
323.05 K, 3021 kPa | 635.6
323.05 K, 4018 kPa | 636.9
323.05 K, 5014 kPa | 638.1
323.05 K, 6007 kPa | 639.4
323.05 K, 7010 kPa | 640.6
323.05 K, 8012 kPa | 641.8
323.05 K, 9020 kPa | 643
323.05 K, 10008 kPa | 644.1
323.05 K, 11021 kPa | 645.2
323.05 K, 12011 kPa | 646.4
323.05 K, 13007 kPa | 647.4
323.05 K, 14007 kPa | 648.5
323.05 K, 15035 kPa | 649.6
323.05 K, 16011 kPa | 650.6
323.05 K, 17021 kPa | 651.6
323.05 K, 18020 kPa | 652.7
323.05 K, 19013 kPa | 653.7
323.05 K, 20001 kPa | 654.6
323.05 K, 21028 kPa | 655.6
323.05 K, 22004 kPa | 656.6
323.05 K, 23010 kPa | 657.5
323.05 K, 24021 kPa | 658.5
323.05 K, 25018 kPa | 659.4
332.85 K, 1020 kPa | 623.5
332.85 K, 2021 kPa | 625
332.85 K, 3022 kPa | 626.5
332.85 K, 4020 kPa | 627.8
332.85 K, 5011 kPa | 629.2
332.85 K, 6016 kPa | 630.6
332.85 K, 7012 kPa | 631.9
332.85 K, 8025 kPa | 633.3
332.85 K, 9012 kPa | 634.5
332.85 K, 10010 kPa | 635.7
332.85 K, 11012 kPa | 636.9
332.85 K, 12019 kPa | 638.1
332.85 K, 13007 kPa | 639.2
332.85 K, 14021 kPa | 640.4
332.85 K, 15014 kPa | 641.6
332.85 K, 16025 kPa | 642.8
332.85 K, 17011 kPa | 643.8
332.85 K, 18035 kPa | 644.9
332.85 K, 19014 kPa | 646
332.85 K, 20011 kPa | 647.1
332.85 K, 21015 kPa | 648.1
332.85 K, 22000 kPa | 649.1
332.85 K, 23012 kPa | 650.1
332.85 K, 24022 kPa | 651.2
332.85 K, 25030 kPa | 652.2
342.73 K, 1010 kPa | 613.9
342.73 K, 2010 kPa | 615.5
342.73 K, 3011 kPa | 617.1
342.73 K, 4010 kPa | 618.6
342.73 K, 5005 kPa | 620
342.73 K, 6031 kPa | 621.6
342.73 K, 7020 kPa | 623
342.73 K, 8009 kPa | 624.4
342.73 K, 9015 kPa | 625.7
342.73 K, 10012 kPa | 627
342.73 K, 11006 kPa | 628.4
342.73 K, 12014 kPa | 629.7
342.73 K, 13011 kPa | 630.9
342.73 K, 14014 kPa | 632.2
342.73 K, 15008 kPa | 633.4
342.73 K, 16006 kPa | 634.6
342.73 K, 17021 kPa | 635.7
342.73 K, 18016 kPa | 636.9
342.73 K, 19025 kPa | 638
342.73 K, 20037 kPa | 639.2
342.73 K, 21025 kPa | 640.3
342.73 K, 22016 kPa | 641.3
342.73 K, 23010 kPa | 642.5
342.73 K, 24023 kPa | 643.5
342.73 K, 25006 kPa | 644.5
352.56 K, 1017 kPa | 604
352.56 K, 2028 kPa | 605.8
352.56 K, 3030 kPa | 607.6
352.56 K, 4024 kPa | 609.2
352.56 K, 5022 kPa | 610.9
352.56 K, 6024 kPa | 612.5
352.56 K, 7027 kPa | 614
352.56 K, 8021 kPa | 615.5
352.56 K, 9022 kPa | 617
352.56 K, 10020 kPa | 618.4
352.56 K, 11023 kPa | 619.9
352.56 K, 12003 kPa | 621.2
352.56 K, 13021 kPa | 622.6
352.56 K, 14012 kPa | 623.9
352.56 K, 15007 kPa | 625.2
352.56 K, 16016 kPa | 626.5
352.56 K, 17012 kPa | 627.7
352.56 K, 18015 kPa | 629
352.56 K, 19003 kPa | 630.2
352.56 K, 20040 kPa | 631.4
352.56 K, 21005 kPa | 632.5
352.56 K, 22035 kPa | 633.8
352.56 K, 23002 kPa | 634.8
352.56 K, 24039 kPa | 636
352.56 K, 25000 kPa | 637.1
362.4 K, 1029 kPa | 593.8
362.4 K, 2020 kPa | 595.8
362.4 K, 3028 kPa | 597.6
362.4 K, 4029 kPa | 599.5
362.4 K, 5040 kPa | 601.3
362.4 K, 6026 kPa | 602.9
362.4 K, 7026 kPa | 604.7
362.4 K, 8004 kPa | 606.3
362.4 K, 9007 kPa | 607.9
362.4 K, 10009 kPa | 609.4
362.4 K, 11009 kPa | 610.9
362.4 K, 12010 kPa | 612.5
362.4 K, 13000 kPa | 614
362.4 K, 14028 kPa | 615.5
362.4 K, 15017 kPa | 616.8
362.4 K, 16014 kPa | 618.1
362.4 K, 17004 kPa | 619.5
362.4 K, 18002 kPa | 620.9
362.4 K, 18988 kPa | 622.1
362.4 K, 20027 kPa | 623.4
362.4 K, 21002 kPa | 624.7
362.4 K, 22018 kPa | 625.9
362.4 K, 23013 kPa | 627.1
362.4 K, 24001 kPa | 628.4
362.4 K, 25000 kPa | 629.5
